{
  "source": "patent US11981646B1",
  "about": "“3-(4-methoxyphenyl)-5-{[5-methyl-2-(propan-2-yl)phenoxy]methyl}-1,2,4-oxadiazole as an antitumor and antimicrobial compound” (King Faisal University, priority 2023, dated 2024)",
  "key": {"[1]": {"tested_on": "human prostate cancer cells (PC3)", "assay": "Assessment of cytotoxicity by SRB assay, PC3 cells", "type": "cell-based", "details": "0.01 μM to 100 μM for 72 h", "method": "(§1) Human prostate cancer cells (PC3) and human osteosarcoma cells (MG-63) were obtained from Nawah Scientific Inc. (Mokatam, Cairo, Egypt) and cultured in DMEM (Dulbecco's modified eagle's medium), Gibco, USA, supplemented with fetal bovine serum (FBS) at a concentration of 10% and 100 U/mL of penicillin and streptomycin (PS). The Cells were incubated at 37° C. in a humidified environment that contained 5% CO2. Cells were seeded in 96-well plates as aliquots of 100 μL cell suspension and incubated in a complete media for 24 h. Afterward, cells were treated with 3-(4-methoxyphenyl)-5-{[5-methyl-2-(propan-2-yl)phenoxy]methyl}-1,2,4-oxadiazole at diverse concentrations ranging from 0.01 μM to 100 μM for 72 h. Then, cells were fixed at 4° C. for one hour with 150 μL of 10% trichloroacetic acid (TCA). After washing the cells five times with distilled water, 70 μL of sulforhodamine (SRB) solution (0.4% w/v) was added and incubated for 10 min at room temperature in a dark place. […] Then, 150 μL of Tris pH 10.5 (10 mM) was added, and the absorbance was measured at 540 nm using a BMG LABTECH®-FLUOstar Omega microplate reader (Ortenberg, Germany). Half maximal inhibitory concentrations (IC50) values were calculated for each experiment using GraphPad Prism 6 software. […] The inhibition was calculated using the following equation: Inhibition %=100−Average Viability"}, "[2]": {"tested_on": "human osteosarcoma cells (MG-63)", "assay": "Assessment of cytotoxicity by SRB assay, MG-63 cells", "type": "cell-based", "details": "0.01 μM to 100 μM for 72 h", "method": "as §1"}},
  "data": [
    {"smiles": "COc1ccc(-c2noc(COc3cc(C)ccc3C(C)C)n2)cc1", "note": "[3-(4-methoxyphenyl)-5-{[5-methyl-2-(propan-2-yl)phenoxy]methyl}-1,2,4-oxadiazole]", "values": [
      {"measurement": "antiproliferative activity against prostate cancer cells (PC3)", "setting": "[1]", "result": "excellent antiproliferative activities"},
      {"measurement": "antiproliferative activity against osteosarcoma (MG-63) cells", "setting": "[2]", "result": "excellent antiproliferative activities"}
    ]}
  ]
}
